Laboratory results taken from patent publication US20030040490A1, “Drugs containing combined active ingredients” (priority 2000, published 2003).

Assays:
[1] = system: Sprague-Dawley rats (SD rats); experiment: oral sucrose loading test, voglibose and repaglinide (Example 3); format: in vivo, rat; conditions: repaglinide 0.05 mg/kg oral, 2.5 g/kg sucrose load, 0-60 min, average ± standard deviation
Experimental: An effect of the combined use of the α-glucosidase inhibitor (voglibose) and the non-sulfonylurea insulin secretagogue (repaglinide) was examined in an oral sucrose loading test using Sprague-Dawley rats (SD rats).
SD rats (10-week-old, male) were divided into 4 groups (6 rats per group) to give 1) a control group (distilled water administration), 2) a repaglinide 0.05 mg/kg administration group, and 3) a voglibose 0.1 mg/kg and repaglinide 0.05 mg/kg combined administration group. After fasting overnight, every rat was given the above-mentioned drugs by single or combined oral administration, and successively given 2.5 g/kg of a sucrose solution by oral administration. The blood was drawn from the rat tail vein before administration of the sucrose solution and 15, 30 and 60 min after the administration, and the plasma glucose level was measured. The plasma glucose level was measured by an enzymatic method using an L type Wako Glu2 (Wako Pure Chemical Industries, Ltd.), and the plasma insulin level was measured by radio immunoassay using Insulotech-Mochida (Mochida Pharmaceutical Co., Ltd.).
Increase in the plasma glucose and plasma insulin areas was calculated by a trapezoid method (Odaka et al., J. Nutr. Sci. Vitaminol., vol. 38, p. 37 (1992)) using the plasma glucose and plasma insulin levels at each time point.

[2] = system: Sprague-Dawley rats (SD rats); experiment: oral sucrose loading test, voglibose and nateglinide (Example 2); format: in vivo, rat; conditions: 2.5 g/kg sucrose load, 0-120 min, average ± standard deviation
Experimental: An effect of the combined use of the α-glucosidase inhibitor (voglibose) and non-sulfonylurea insulin secretagogue (nateglinide) was examined in an oral sucrose loading test using Sprague-Dawley rats (SD rats). SD rats (7-week-old, male) were divided into 6 groups (6 rats per group) to give 1) a control group (distilled water administration), 2) a voglibose 0.1 mg/kg administration group, 3) a nateglinide 10 or 30 mg/kg administration group, and 4) a voglibose 0.1 mg/kg and nateglinide 10 or 30 mg/kg combined administration group. After fasting overnight, every rat was given the above-mentioned drugs by single or combined oral administration, and successively given 2.5 g/kg sucrose solution by oral administration. […] The plasma glucose level was measured by an enzymatic method using an L type Wako Glu2 (Wako Pure Chemical Industries, Ltd.). Increase in the plasma glucose area was calculated by a trapezoid method (Odaka et al., J. Nutr. Sci. Vitaminol., vol. 38, p. 37 (1992) using the plasma glucose level at each time point. The results are shown in Table 1.

## CCOc1cc(CC(=O)N[C@@H](CC(C)C)c2ccccc2N2CCCCC2)ccc1C(=O)O [repaglinide]
[1]
  Increase in plasma glucose area: 6 ± 13 mg·h/dL
  Increase in plasma insulin area: 432 ± 117 μU · h/ml

## CC(C)[C@H]1CC[C@H](C(=O)N[C@H](Cc2ccccc2)C(=O)O)CC1 [nateglinide]
[2]; nateglinide 10 mg/kg oral
  Increase in plasma glucose area: 65 ± 28 mg·h/dL
[2]; nateglinide 30 mg/kg oral
  Increase in plasma glucose area: 54 ± 15 mg·h/dL

## OCC(CO)N[C@H]1C[C@](O)(CO)[C@@H](O)[C@H](O)[C@H]1O [voglibose]
[2]; voglibose 0.1 mg/kg oral
  Increase in plasma glucose area: 30 ± 10 mg·h/dL
